According to BindingDB's records for doi:10.1007/s12154-010-0040-8 (Svims University, 2010):
pIC50: −log10 of the molar value.

These compounds were tested against T1, UDP-N-acetylmuramoylalanine--D-glutamate ligase (Leptospira interrogans serogroup Icterohaemorrhagiae serovar Lai (strain 56601), UniProt Q8F7V4) (assay: Inhibition Assay).
T1 sequence (Q8F7V4 whole entry): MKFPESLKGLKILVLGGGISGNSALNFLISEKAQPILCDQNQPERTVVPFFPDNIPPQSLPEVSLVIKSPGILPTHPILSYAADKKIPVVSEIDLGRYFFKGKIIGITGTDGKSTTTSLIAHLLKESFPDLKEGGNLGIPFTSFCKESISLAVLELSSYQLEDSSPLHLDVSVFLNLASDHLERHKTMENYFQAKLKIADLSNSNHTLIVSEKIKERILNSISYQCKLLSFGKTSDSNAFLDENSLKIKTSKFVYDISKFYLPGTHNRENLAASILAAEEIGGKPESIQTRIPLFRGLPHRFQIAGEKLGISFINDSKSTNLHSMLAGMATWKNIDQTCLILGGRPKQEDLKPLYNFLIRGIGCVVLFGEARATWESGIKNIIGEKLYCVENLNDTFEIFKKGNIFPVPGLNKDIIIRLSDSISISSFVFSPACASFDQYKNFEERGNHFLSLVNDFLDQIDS
Description: Inhibiton assay using MurgD.
Compound O=C(O)c1cc(C(=O)O)cc(-c2ccc(/C=C3\SC(=S)N(c4ccc5c(c4)OCO5)C3=O)o2)c1 [Benzene 1,3-dicarvboxylic acid inhibitor] has a pIC50 of 3.57. C[C@@H](NC(=O)C=Cc1ccc2c(c1)OCO2)P(=O)(O)CC(CCC(=O)O)C(=O)O (stereo partly drawn) [Phosphinate inhibitor 1] showed a pIC50 of 4.02. C[C@H](NS(=O)(=O)Cc1ccc([N+](=O)[O-])cc1)C(=O)N[C@@H](C)P(=O)(O)CC(CCC(=O)O)C(=O)O (stereo partly drawn) [Phosphinate inhibitor 2] gave a pIC50 of 4.11.
